# Read-outs that look alike come from different tables or passages of the source.
# Columns and labels:
# [1] = Pharmacokinetic analysis and plasma drug concentrations (LC-MS/MS); assay type: in vivo, APOE*3Leiden.CETP mice; details: APOE*3Leiden.CETP, mouse, plasma; for AUC(0-t): read-out: AUC0–24
# Protocol: Animal experiments were approved by the Institutional Animal Care and Use Committee of The Netherlands Organization for Applied Research under registration number 3557.
# PK analysis and plasma drug concentrations
# EDTA plasma samples collected during the 24-hour PK study and at week 16 of the (cardio)vascular risk factor-atherosclerosis study were subsequently stored at -80°C until analysis. Thawed plasma samples (50μL) were de-proteinized with two volumes of acetonitrile containing an appropriate src-inhibitor chemotype as internal standard for each analyte.
# Following deproteinization, a 5μL portion of clear supernatant was then subjected to solvent gradient separation in an Agilent 1100 series HPLC system interfaced to a Micromass triple-quadrupole mass spectrometer, which was operated in the positive ion electrospray MRM mode to obtain daughter ions for quantitation: Ion transitions used for quantitation were as follows: […]
# curves ranging from 1 nM to 6 uM were fitted with a quadratic regression weighted by reciprocal concentration (1/x). LLOQ for the purposes of this assay was between 1 and 2 nM for all compounds analyzed. QC samples at three levels in the range of the standard curve were used to accept individual analytical sets, and all results were calculated as the mean of triplicate determinations ± standard error. Tmax, Cmax and AUCs were calculated using the software Berkeley Madonna (version 8.3.18). […]
# [2] = tested on: APOE*3Leiden.CETP mice; test: Blood pressure and heart rate (tail cuff); assay type: in vivo; details: after 2 and 15 weeks of treatment, all dose groups, vs control
# Excerpt: (§1) Pouwer et al Supplementary material […]
# [3] = tested on: CML; details: cited from earlier work
# [4] = tested on: APOE*3Leiden.CETP mice; test: Hepatic lipid content by HPTLC; assay type: in vivo; details: 16 weeks
# Protocol: (§2) Pouwer et al Supplementary material
# (§3) HDL-C was measured after precipitation as described previously20. The distribution of […]
# (§4) protein liquid chromatography (FPLC)9. The inflammatory markers SAA, E-selectin and MCP- […]
# (§5) according to the manufacturer’s instruction. Plasma ALT and AST were determined using a […]
# (§6) group at 2 and 15 weeks18.
# (§7) Straubenhardt, Germany).21
# (§8) BAL and urinary albumin:creatinin […]
# (§9) catheter to collect broncho-alveolar lavage (BAL) fluid. Protein and albumin content in BAL […]
# (§10) the mouse albumin ELISA kit (ALPCO, Salem, USA). Urinary albumin and creatinin levels […]
# (§11) kit (Exocell, Philadelphia, USA) according to manufacturer’s instruction.
# [5] = tested on: peripheral blood mononuclear cells; test: Flow cytometric analysis (FACS) of PBMCs and monocyte subsets; details: for CD11b+Ly6Chigh / CD11b+Ly6Clow / Number of live/single PBMCs per mL blood: after 12 weeks; for change of number of circulating PBMCs vs control: at 12 weeks
# [6] = tested on: factor VIIa; test: Factor VIIa activity in plasma; assay type: in vivo, APOE*3Leiden.CETP mice; details: 30 mg/kg QD, at 4 weeks, p < 0.001
# Excerpt: as §2
# (§12) Dickinson, Franklin Lakes, New Jersey, USA). After 12 weeks of treatment, peripheral blood
# (§13) CD11b+/Ly6Chigh monocytes. The following conjugated monoclonal antibodies, all from
# (§14) Coagulation factor VII and VIIa
# (§15) (Diagnostica Stago Inc. Parsippany, N J). For the determination of total clotting FVII an one
# (§16) Histological assessment of lung morphology and atherosclerosis
# (§17) The caudal lung was cross
# (§18) direction of the aortic arch.
# [7] = tested on: E-selectin; test: Plasma E-selectin ELISA; assay type: in vivo, APOE*3Leiden.CETP mice; details: after 16 weeks of treatment
# Excerpt: as §1
# The inflammatory markers SAA, E-selectin and MCP-
# according to the manufacturer’s instruction. […]
# [8] = QD, cited from earlier work
# [9] = tested on: APOE*3Leiden.CETP mice; test: Lung vascular integrity: histology, wet/dry weight ratio, protein in BAL fluid; assay type: in vivo
# Protocol: as §2, §3, §4, §5, §6, §7, §8, §9, §10, §11
# Dickinson, Franklin Lakes, New Jersey, USA). After 12 weeks of treatment, peripheral blood […]
# CD11b+/Ly6Chigh monocytes. The following conjugated monoclonal antibodies, all from […]
# as §14
# (Diagnostica Stago Inc. Parsippany, N J). For the determination of total clotting FVII an one […]
# Histological assessment of lung morphology and atherosclerosis […]
# The caudal lung was cross […]
# as §18
# [10] = for Body weight / Food intake: after 16 weeks; for Food intake: per cage
# Excerpt: Female APOE*3Leiden.CETP transgenic mice (9 to 14 weeks of age) from the SPF breeding stock at TNO-Metabolic Health Research (TNO-Leiden) were used in this study. Females were used because they are more responsive to dietary cholesterol and fat than males. APOE*3Leiden females have a higher VLDL production ([20]) than males resulting in higher plasma total cholesterol (TC) and triglyceride (TG) levels and more pronounced development of atherosclerosis ([21, 22]). […] Body weight, food intake and clinical signs of behavior were monitored regularly during the study. Animal experiments were approved by the Institutional Animal Care and Use Committee of The Netherlands Organization for Applied Research under registration number 3557.
# [11] = tested on: factor VII; test: Total factor VII coagulant activity in plasma; assay type: in vivo, APOE*3Leiden.CETP mice
# Excerpt: as §2, §12, §13, §14, §15, §16, §17, §18
# [12] = po, repeated dose, BID, 150 mg/kg, after 16 weeks
# [13] = po, repeated dose, QD, 10 mg/kg, after 16 weeks
# [14] = po, repeated dose, QD, 30 mg/kg, after 16 weeks
# [15] = po, repeated dose, QD, 3 mg/kg, after 16 weeks
smiles,measurement,setting,value
"Cc1ccc(NC(=O)c2ccc(CN3CCN(C)CC3)cc2)cc1Nc1nccc(-c2cccnc2)n1 [Imatinib, imatinib]",Cmax,[1]; [12],11100 ng/mL
same,Tmax,[1]; [12],2.47 h
same,AUC(0-t),[1]; [12],78100 ng·h/mL
same,Cmax,"[1]; single oral gavage, 100 mg/kg",5290 ng/mL
same,Tmax,"[1]; single oral gavage, 100 mg/kg",2.28 h
same,AUC(0-t),"[1]; single oral gavage, 100 mg/kg",32800 ng·h/mL
same,effect on heart rate,[2],not affected
same,effect on systolic blood pressure (SBP),[2],not affected
same,relapses in treated patients,[3],up to 17%
same,change of hepatic cholesterol ester content vs control,"[4]; 150 mg/kg BID, p = 0.001",−30%
same,CD11b+Ly6Chigh,[5]; 150 mg/kg BID,11.0 ± 3.6 % of monocyte population
same,CD11b+Ly6Clow,[5]; 150 mg/kg BID,69.1 ± 5.9 % of monocyte population
same,Number of live/single PBMCs per mL blood,[5]; 150 mg/kg BID,3.9 ± 1.3 *106 /mL
same,change of number of circulating PBMCs vs control,"[5]; 150 mg/kg BID, p = 0.006",−42%
"Cc1cn(-c2cc(NC(=O)c3ccc(C)c(Nc4nccc(-c5cccnc5)n4)c3)cc(C(F)(F)F)c2)cn1 [Nilotinib, nilotinib]",increase of the activity of FVIIa in plasma vs control,[6],82%
same,Cmax,[1]; [13],2300 ng/mL
same,Tmax,[1]; [13],3.17 h
same,AUC(0-t),[1]; [13],24600 ng·h/mL
same,Cmax,[1]; [14],6890 ng/mL
same,Tmax,[1]; [14],3.17 h
same,AUC(0-t),[1]; [14],73800 ng·h/mL
same,Cmax,"[1]; single oral gavage, 50 mg/kg",11000 ng/mL
same,Tmax,"[1]; single oral gavage, 50 mg/kg",3.26 h
same,AUC(0-t),"[1]; single oral gavage, 50 mg/kg",117000 ng·h/mL
same,effect on heart rate,[2],not affected
same,effect on systolic blood pressure (SBP),[2],not affected
same,E-selectin,[7]; 10 mg/kg QD,79 ± 23 ng/mL
same,E-selectin,[7]; 30 mg/kg QD,99 ± 17 ng/mL
same,AUC0–24,"[8]; CML-patients, repeated dose, dose 400–1,200 (mg)",36000 ± 11800 ng·h/mL
same,AUC0–24,"[8]; healthy subjects, single, dose 400 (mg)",14700 ± 5000 ng·h/mL
same,CD11b+Ly6Chigh,[5]; 10 mg/kg,27.5 ± 4.3 % of monocyte population
same,CD11b+Ly6Clow,[5]; 10 mg/kg,61.4 ± 4.8 % of monocyte population
same,Number of live/single PBMCs per mL blood,[5]; 10 mg/kg,6.5 ± 2.4 *106 /mL
same,CD11b+Ly6Chigh,[5]; 30 mg/kg,11.4 ± 3.8 % of monocyte population
same,CD11b+Ly6Clow,[5]; 30 mg/kg,73.2 ± 4.9 % of monocyte population
same,Number of live/single PBMCs per mL blood,[5]; 30 mg/kg,6.4 ± 1.4 *106 /mL
"Cc1ccc(C(=O)Nc2ccc(CN3CCN(C)CC3)c(C(F)(F)F)c2)cc1C#Cc1cnc2cccnn12 [Ponatinib, ponatinib]",Cmax,[1]; [15],140 ng/mL
same,Tmax,[1]; [15],6.72 h
same,AUC(0-t),[1]; [15],2430 ng·h/mL
same,Cmax,[1]; [13],460 ng/mL
same,Tmax,[1]; [13],6.73 h
same,AUC(0-t),[1]; [13],8110 ng·h/mL
same,Cmax,"[1]; single oral gavage, 5 mg/kg",190 ng/mL
same,Tmax,"[1]; single oral gavage, 5 mg/kg",8 h
same,AUC(0-t),"[1]; single oral gavage, 5 mg/kg",3240 ng·h/mL
same,decrease of the amount of protein in BAL fluid,"[9]; 3 mg/kg QD, week 16, p = 0.029",51%
same,decrease of the amount of protein in BAL fluid,"[9]; 10 mg/kg QD, week 16, p = 0.041",47%
same,effect on heart rate,[2],not affected
same,effect on systolic blood pressure (SBP),[2],not affected
same,change of hepatic cholesterol ester content vs control,"[4]; 3 mg/kg QD (low dose), p < 0.001",−49%
same,change of hepatic triglyceride content vs control,"[4]; 3 mg/kg QD (low dose), p = 0.048",−32%
same,change of hepatic cholesterol ester content vs control,"[4]; 10 mg/kg QD (high dose), p < 0.001",−61%
same,change of hepatic triglyceride content vs control,"[4]; 10 mg/kg QD (high dose), p = 0.005",−43%
same,change of hepatic free cholesterol content vs control,"[4]; 10 mg/kg QD, p = 0.007",−21%
same,mice that died during blood pressure measurements,"[10]; 3 mg/kg QD, t = 15 weeks",Two
same,Body weight,[10]; 3 mg/kg,22.5 ± 2.3 gram
same,Food intake,[10]; 3 mg/kg,2.4 gram/mouse/day
same,Body weight,[10]; 10 mg/kg,22.3 ± 2.8 gram
same,Food intake,[10]; 10 mg/kg,2.3 gram/mouse/day
same,AUC0–24,"[8]; CML-patients, repeated dose, dose 15–60 (mg)",1300 ng·h/mL
same,AUC0–24,"[8]; CML-patients, single, dose 60 (mg)",700 ± 400 ng·h/mL
same,change of total factor VII coagulant activity (FVII) in plasma vs control,"[11]; 3 mg/kg QD, after 12 weeks, p = 0.07",+28%
same,change of total factor VII coagulant activity (FVII) in plasma vs control,"[11]; 10 mg/kg QD, after 4 weeks, p < 0.001",+265%
same,CD11b+Ly6Clow,[5]; 3 mg/kg,58.4 ± 2.5 % of monocyte population
same,Number of live/single PBMCs per mL blood,[5]; 3 mg/kg,7.1 ± 1.7 *106 /mL
same,change of number of circulating PBMCs vs control,"[5]; 10 mg/kg QD (high-dose), p = 0.003",−44%
same,CD11b+Ly6Clow,[5]; 10 mg/kg,69.1 ± 6.4 % of monocyte population
same,Number of live/single PBMCs per mL blood,[5]; 10 mg/kg,3.8 ± 0.8 *106 /mL
